Results on seven molecules are retold here after US7642367B2, “Diamino-functional chalcones” (Lica Pharmaceuticals A/S, priority 2002, dated 2010).

In data set [1] the test system is Plasmodium falciparum 3D7. The experiment in a line: Plasmodium falciparum assay (3H-phenylalanine labelling). The class given is cell-based.
The nature of data set [2]: Determination of metabolic stability (liver microsomes). The data set is classed as in vitro ADME, Wistar rat. The settings on record: for Metabolic turn-over in vitro: rat liver microsomes, 20 μM, 15 min at 37° C. As for the experimental part: incubations were performed with Wistar rat liver microsomes (0.25 mg/ml) in 2% sodium bicarbonate solution. NADP (0.13 mg/ml), glucose-6-phosphate (0.63 mg/ml) and glucose-6-phosophate dehydrogenase (0.38 units/ml) were used as NADPH generation system and UDPGA (0.48 mg/ml) was added to include the phase II reaction, glucuronic acid conjugation, in the assay. After 5 minutes of pre-incubation the reaction was started by addition of the test article to give a final concentration of 20 μM. Samples were incubated for 15 min at 37° C. and the reactions were terminated by addition of equal volumes of acetonitrile. Blank incubations were performed at the same concentration but without addition of microsomes. Both blank and microsome-containing samples were made in replicats of three. Prior to analysis samples were centrifuged for 10 min. at 3500 rpm, HPLC system:
Initial conditions were 40% mobile phase A (acetonitrile) and 60% mobile phase B (10 mM ammonium acetate pH 9.5). During the first 20 minutes, the mobile phase was changed via a linear gradient to 90% A and 10% B. This was followed by a 5 minutes linear gradient to initial conditions, which were maintained for 5 min. The flow rate was 0.20 ml/min and injection volume 10 μl.
On the technique in general: Liver microsomes are a subcellular fraction often used to study metabolism.

The nature of data set [3]: Determination of solubility in phosphate buffer pH 7.4. The data set is classed as physicochemical. As to conditions: aqueous buffer at pH 7.4. As for the experimental part: Solubility of the compounds was determined by preparing a saturated solution of compound in 0.3 M phosphate buffer (pH 7.4±0.3) in a brown glass tube. The suspensions were rotated slowly for 24 hours. Aliquots were centrifuged for 10 minutes at 14.000 rpm and supernatants were diluted in 40% (v/v) acetonitrile in water prior to HPLC analysis. Concentrations of analytes were quantified against a standard curve and used as term of solubility.
The HPLC-UV method used for the assessment of solubility is the same as used in the in vitro metabolism assay.

For data set [4], the system named is Plasmodium berghei K173. The data set is described as follows: Multiple intra venous administration in Plasmodium berghei K173 infected mice. The class given is in vivo. The settings on record: Plasmodium berghei K173 infected NMRI female mice, multiple intra venous administrations, FIG. 10. As for the experimental part:
The doses stated were administered intra venously as solutions in a suitable vehicle.

The conditions of data set [5]: mice.
For data set [6], the system named is Staphylococcus aureus ATCC29213. The data set is described as follows: MIC determination in broth microdilution assay. As to conditions: A: Staphylococcus aureus ATCC29213; NA: no activity.
Data set [7] has as its system Staphylococcus aureus ATCC33591 (resistant to methicillin). The data set is described as follows: MIC determination in broth microdilution assay. As to conditions: B: Staphylococcus aureus ATCC33591 (resistant to methicillin); NA: no activity. Background: Dilution methods test growth across graded concentrations, often in twofold steps.
For data set [8], the system named is Staphylococcus intermedius #2357 (clinical isolate). The experiment in a line: MIC determination in broth microdilution assay. As to conditions: C: Staphylococcus intermedius #2357; NA: no activity.
Data set [9] concerns Enterococcus faecalis ATCC29212. The experiment in a line: MIC determination in broth microdilution assay. As to conditions: D: Enterococcus faecalis ATCC29212; NA: no activity.
Data set [10] concerns Enterococcus faecium #17501 (vancomycin-resistant clinical isolate). The data set is described as follows: MIC determination in broth microdilution assay. As to conditions: E: Enterococcus faecium #17501 (vancomycin-resistant); NA: no activity.
The test system of data set [11] is Streptococcus pneumoniae #998 (clinical isolate). The data set is described as follows: MIC determination in broth microdilution assay. As to conditions: F: Streptococcus pneumoniae #998; NA: no activity.
The test system of data set [12] is Eschericia coli ATCC25922. The data set is described as follows: MIC determination in broth microdilution assay. As to conditions: for MIC: G: Eschericia coli ATCC25922, NA: no activity.
The subject of another data set is Eschericia coli ESS. The experiment in a line: MIC determination in broth microdilution assay. As to conditions: for MIC: H: Eschericia coli ESS, NA: no activity.
For a further data set, the system named is non-fastidious bacteria. The data set is described as follows: Activity against non-fastidious bacteria (panel). The settings on record: pathogenic Gram-positive bacteria.
The test system of data set [13] is Plasmodium falciparum DD2 (Cq-res). As to conditions: read-out: Plasmodium falciparum IC50.
Data set [14] has as its system Plasmodium falciparum 7G8 (Cq-res). The settings on record: read-out: Plasmodium falciparum IC50.
The test system of data set [15] is Plasmodium falciparum K1 (Cq-res). As to conditions: read-out: Plasmodium falciparum IC50.
The conditions of data set [16]: mice. This is another data set of the same source.
Data set [17] deals with Plasmodium berghei K173. The settings on record: Plasmodium berghei K173 infected NMRI female mice, multiple oral administrations, FIG. 8.

Values after ≈ are worked out from the molar mass of the structure shown. Like-named read-outs stand apart in the source and are kept apart here.

What is called IC50 is the concentration at which inhibition is half-maximal. Broadly, the Solubility is how much of the substance goes into solution per volume. A low value points to a poorly soluble substance. As for `CN(C)CCN(C)c1cccc(/C=C/C(=O)c2ccccc2CN(C)C)c1` [B074, (E)-3-{3-[(2-Dimethylamino-ethyl)-methyl-amino]-phenyl}-1-(2-dimethylaminomethyl-phenyl)-propenone], the IC50 in [1] (Plasmodium falciparum 3D7 (Table 2), read-out: IC50) was found to be 600 nM. For the same molecule, the “Metabolic turn-over in vitro” value in data set [2] came out at 0%. The Solubility in data set [3] is 15400 µg/mL (≈ 42.1 mM). Further, the effect on parasitaemia result in the data set with Plasmodium berghei K173 [4] was “significant decrease in the parasitaemia”.
As a reminder, the bioavailability is the share of a dose that reaches the circulation, judged against a reference dose that is usually intravenous. Read a low bioavailability as poor availability. The molecule `COc1ccccc1-c1ccc(/C=C/C(=O)c2ccc(O)c(CN(C)C)c2)c(N2CCN(C)CC2)c1` [B098, (E)-1-(3-Dimethylaminomethyl-4-hydroxy-phenyl)-3-[2′-methoxy-3-(4-methyl-piperazin-1-yl)-biphenyl-4-yl]-propenone] showed a bioavailability in [5] of 50%.
In general, MIC refers to the lowest concentration found to suppress growth. A low value points to inhibition by little substance. In the case of `Cc1cc(C)cc(-c2ccc(N3CCN(C)CC3)c(/C=C/C(=O)c3cccc(NCCN(C)C)c3)c2)c1` [B101, (E)-1-[3-(2-Dimethylamino-ethylamino)-phenyl]-3-[3′,5′-dimethyl-4-(4-methyl-piperazin-1-yl)-biphenyl-3-yl]-propenone], the “Metabolic turn-over in vitro” value in data set [2] is reported as 3%. Besides, the MIC in data set [6] was 4.7 µM (≈ 2.33 µg/mL); in [7], 4.7 µM (≈ 2.33 µg/mL); in data set [8] it was 9.4 µM (≈ 4.67 µg/mL); in data set [9], 4.7 µM (≈ 2.33 µg/mL); in data set [10], 4.7 µM (≈ 2.33 µg/mL); in data set [11] it was 4.7 µM (≈ 2.33 µg/mL). Besides, the minimal inhibitory concentration (MIC) in data set [12] was 9.4 µM (≈ 4.67 µg/mL); with Eschericia coli ESS, 4.7 µM (≈ 2.33 µg/mL). In addition, in the data set on non-fastidious bacteria, the “activity against Gram-positive non-fastidious bacteria” value was “increased potency”.
Regarding `COc1ccc(C(=O)/C=C/c2cc(-c3cc(C)cc(C)c3)ccc2N2CCN(C)CC2)c(CN(C)C)c1` [B102, (E)-1-(2-Dimethylaminomethyl-4-methoxy-phenyl)-3-[3′,5′-dimethyl-4-(4-methyl-piperazin-1-yl)-biphenyl-3-yl]-propenone], the MIC was 4.7 µM (≈ 2.34 µg/mL) in data set [6]; 9.4 µM (≈ 4.68 µg/mL) in data set [7]; 18.8 µM (≈ 9.36 µg/mL) in [8]; 9.4 µM (≈ 4.68 µg/mL) in data set [9]; 9.4 µM (≈ 4.68 µg/mL) in [10]; 4.7 µM (≈ 2.34 µg/mL) in data set [11]. For the same molecule, the MIC in data set [12] was found to be 37.5 µM (≈ 18.7 µg/mL); in the data set on Eschericia coli ESS, 4.7 µM (≈ 2.34 µg/mL). Besides, in the data set on non-fastidious bacteria, the “activity against Gram-positive non-fastidious bacteria” value was “increased potency”.
As to `COc1ccc(C(=O)/C=C/c2cc(-c3ccccc3)cc(N3CCN(C)CC3)c2)c(CN(C)C)c1` [B111, (E)-1-(2-Dimethylaminomethyl-4-methoxy-phenyl)-3-[5-(4-methyl-piperazin-1-yl)-biphenyl-3-yl]-propenone], the concentration for half-maximal inhibition (IC50) was determined as 1600 nM in [1] (3D7 (Cq-sen) (Table 3), read-out: Plasmodium falciparum IC50); 1000 nM in data set [13]; 1300 nM in [14]; 1000 nM in [15]. Further, the “Metabolic turn-over in vitro” value in data set [2] was 4%. Also, the Solubility in data set [3] turned out to be 3100 µg/mL (≈ 6.6 mM).
In the case of `Cc1cc(C)cc(-c2ccc(N3CCNCC3)c(/C=C/C(=O)c3cccc(NCCN(C)C)c3)c2)c1` [B116, (E)-1-[3-(2-Dimethylamino-ethylamino)-phenyl]-3-(3′,5′-dimethyl-4-piperazin-1-yl-biphenyl-3-yl)-propenone], the MIC in data set [6] is 2.4 µM (≈ 1.16 µg/mL); in [7], 4.7 µM (≈ 2.27 µg/mL); in data set [8] it was 4.7 µM (≈ 2.27 µg/mL); in data set [9], 4.7 µM (≈ 2.27 µg/mL); in data set [10] it was 4.7 µM (≈ 2.27 µg/mL); in data set [11] it was 4.7 µM (≈ 2.27 µg/mL). For the same molecule, the MIC (in data set [12]; with Eschericia coli ESS) was 4.7 µM (≈ 2.27 µg/mL) in each case. Besides, the “activity against E. coli ATCC25922” value in [12] was “high activity”. Further, the “activity against ESS strain of E. coli” value in the data set with Eschericia coli ESS is “high activity”.
As to `Cc1ccccc1-c1cc(/C=C/C(=O)c2ccccc2CN(C)C)cc(N(C)CCN(C)C)c1` [B119, (E)-3-{5-[(2-Dimethylamino-ethyl)-methyl-amino]-2′-methyl-biphenyl-3-yl}-1-(2-dimethylaminomethyl-phenyl)-propenone], the “metabolism” value came to 8.6% in data set [2] (rat) and 75% in [16]. For the same molecule, the “Metabolic turn-over in vitro” value in data set [2] is given as 9%. For the same molecule, in the data set on Plasmodium berghei K173 [17], the “effect on infection (parasitaemia)” value is given as “inhibit the development of the infection”.
